# Values of other authors in US12533314B2, “Low sodium oxybate once nightly composition” (Tris Pharma, Inc., priority 2023, dated 2026).
# Conditions: in vivo
compound,measurement,value
"O=C(O)CCCO [Oxybate, Gamma-hydroxybutyrate]",plasma half-life,30 to 45 min
